Reference: patent US20130317037A1, “METHOD OF ADMINISTRATION AND TREATMENT” (GlaxoSmithKline Intellectual Property Development Limited, priority 2010, published 2013)

Experiments:
Assay type in all cases: cell-based
[1] = test system: HCC1806; assay: cells
Procedure: (§1) From the stock concentration, 8 serial dilutions (1:5) were made with DMSO.
(§2) Day −1: Plate cells in 100 μl volume in 96 well plate. • Note: Cell number seeded adjusted for growth characteristics, so that at time of assay for proliferation following three-day drug treatment, the control wells should still be in log-growth phase (sub-confluent). Day 0: Drug added to plate for treatment. • A time 0 plate was processed for the proliferation assay to establish a baseline reading at time when drug was added.
(§3) LBNL are following the protocols set up by the NCI/NIH DTP Human Tumor Cell Line Screen Process (http://dtp.nci.nih.gov/branches/btb/ivclsp.html) and summarized below.
(§4) [(Ti−Tz)/(C−Tz)]×100 for concentrations for which Ti>/=Tz
(§5) [(Ti−Tz)/(C−Tz)]×100=50, • which is the drug concentration resulting in a 50% reduction in the net growth in control cells during the drug incubation. TGI: Total growth inhibition is calculated from
(§6) Ti=Tz. • The drug concentration resulting in total growth inhibition (down to the ‘time 0’ baseline). LC50: Net loss of cell growth at 50% is calculated from
(§7) [(Ti−Tz)/Tz]×100=−50. • The concentration of drug resulting in a 50% reduction in the cell number at the end of the drug treatment as compared to that at the beginning (time 0) indicating a net loss of cells following treatment.
(§8) Values are calculated for each of these three parameters if the level of activity is reached; however, if the effect is not reached or is exceeded, the value for that parameter is expressed as greater or less than the maximum or minimum concentration tested.

[2] = test system: MDAMB157; assay: cells
Procedure: as §1, §2, §3, §4, §5, §6, §7, §8

[3] = test system: MDAMB231; assay: cells
Procedure: as §1, §2, §3, §4, §5, §6, §7, §8

[4] = test system: SUM1315MO2; assay: cells
Procedure: as §1, §2, §3, §4, §5, §6, §7, §8

[5] = test system: Hs578T; assay: cells
Procedure: as §1, §2, §3, §4, §5, §6, §7, §8

[6] = test system: HCC1419; assay: cells
Procedure: as §1, §2, §3, §4, §5, §6, §7, §8

[7] = test system: 184A1; assay: in vitro
Procedure: as §1, §2, §3, §4, §5, §6, §7, §8

[8] = test system: T47D; assay: cells
Procedure: as §1, §2, §3, §4, §5, §6, §7, §8

[9] = test system: CAMA1; assay: cells
Procedure: as §1, §2, §3, §4, §5, §6, §7, §8

[10] = test system: ZR751; assay: cells
Procedure: as §1, §2, §3, §4, §5, §6, §7, §8

[11] = test system: MCF7; assay: cells
Procedure: as §1, §2, §3, §4, §5, §6, §7, §8

[12] = test system: M4A4; assay: cells
Procedure: as §1, §2, §3, §4, §5, §6, §7, §8

[13] = test system: UACC893D; assay: cells
Procedure: as §1, §2, §3, §4, §5, §6, §7, §8

[14] = test system: HCC3153; assay: cells
Procedure: as §1, §2, §3, §4, §5, §6, §7, §8

[15] = test system: T47DKBluc; assay: cells
Procedure: as §1, §2, §3, §4, §5, §6, §7, §8

[16] = test system: SUM229PE; assay: cells
Procedure: as §1, §2, §3, §4, §5, §6, §7, §8

[17] = test system: MDAMB468D; assay: cells
Procedure: as §1, §2, §3, §4, §5, §6, §7, §8

[18] = test system: HCC2185; assay: cells
Procedure: as §1, §2, §3, §4, §5, §6, §7, §8

[19] = test system: UACC812; assay: cells
Procedure: as §1, §2, §3, §4, §5, §6, §7, §8

[20] = test system: HCC202; assay: cells
Procedure: as §1, §2, §3, §4, §5, §6, §7, §8

[21] = test system: MDAMB415; assay: cells
Procedure: as §1, §2, §3, §4, §5, §6, §7, §8

[22] = Homo sapiens, 50% net loss of cells vs time 0, read-out: LC50 (the source's name)
[23] = Homo sapiens, 72 h, three-day drug treatment, read-out: gIC50

## COc1ncc(-c2ccc3nccc(-c4ccnnc4)c3c2)cc1NS(=O)(=O)c1ccc(F)cc1F [Compound B, 2,4-difluoro-N-{2-(methyloxy)-5-[4-(4-pyridazinyl)-6-quinolinyl]-3-pyridinyl}benzenesulfonamide]
[1]; HCC1806, total growth inhibition
  TGI: 375.1 nM
[1]; Homo sapiens, 72 h, HCC1806, three-day drug treatment, read-out: gIC50
  IC50: 26.2 nM
[1]; Homo sapiens, HCC1806, 50% net loss of cells vs time 0, read-out: LC50 (the source's name)
  CC50: 2820 nM
[2]; Homo sapiens, MDA-MB-157, 72 h, MDAMB157, three-day drug treatment, read-out: gIC50
  IC50: 398 nM
[2]; Homo sapiens, MDA-MB-157, MDAMB157, 50% net loss of cells vs time 0, read-out: LC50 (the source's name)
  CC50: > 33000 nM
[2]; MDAMB157, total growth inhibition
  TGI: 3981.1 nM
[3]; Homo sapiens, MDA-MB-231, 72 h, MDAMB231, three-day drug treatment, read-out: gIC50
  IC50: 110 nM
[3]; Homo sapiens, MDA-MB-231, MDAMB231, 50% net loss of cells vs time 0, read-out: LC50 (the source's name)
  CC50: > 33000 nM
[3]; MDAMB231, total growth inhibition
  TGI: >33000.0 nM
[4]; Homo sapiens, 72 h, SUM1315MO2, three-day drug treatment, read-out: gIC50
  IC50: 10 nM
[4]; Homo sapiens, SUM1315MO2, 50% net loss of cells vs time 0, read-out: LC50 (the source's name)
  CC50: 8880 nM
[4]; SUM1315MO2, total growth inhibition
  TGI: 158.3 nM
[5]; Homo sapiens, Hs-578T, 50% net loss of cells vs time 0, read-out: LC50 (the source's name)
  CC50: > 33000 nM
[5]; Homo sapiens, Hs-578T, 72 h, three-day drug treatment, read-out: gIC50
  IC50: 67.4 nM
[5]; total growth inhibition
  TGI: 4556.2 nM
[6]; HCC1419, total growth inhibition
  TGI: 5.2 nM
[6]; Homo sapiens, 72 h, HCC1419, three-day drug treatment, read-out: gIC50
  IC50: 1.5 nM
[6]; Homo sapiens, HCC1419, 50% net loss of cells vs time 0, read-out: LC50 (the source's name)
  CC50: 514 nM
[7]; 184A1, total growth inhibition
  TGI: 16.3 nM
[7]; Homo sapiens, 72 h, 184A1, three-day drug treatment, read-out: gIC50
  IC50: 1.6 nM
[8]; [22]
  CC50: 1000 nM
[8]; [23]
  IC50: 3.7 nM
[8]; total growth inhibition
  TGI: 19.1 nM
[9]; CAMA1, total growth inhibition
  TGI: 239.9 nM
[9]; Homo sapiens, CAMA-1, 72 h, CAMA1, three-day drug treatment, read-out: gIC50
  IC50: 89.1 nM
[9]; Homo sapiens, CAMA-1, CAMA1, 50% net loss of cells vs time 0, read-out: LC50 (the source's name)
  CC50: 537 nM
[10]; Homo sapiens, ZR-75-1, 72 h, ZR751, three-day drug treatment, read-out: gIC50
  IC50: 10.5 nM
[10]; Homo sapiens, ZR-75-1, ZR751, 50% net loss of cells vs time 0, read-out: LC50 (the source's name)
  CC50: 248 nM
[10]; ZR751, total growth inhibition
  TGI: 30.2 nM
[11]; Homo sapiens, 72 h, MCF7, three-day drug treatment, read-out: gIC50
  IC50: 7.3 nM
[11]; Homo sapiens, MCF7, 50% net loss of cells vs time 0, read-out: LC50 (the source's name)
  CC50: 149 nM
[11]; MCF7, total growth inhibition
  TGI: 22.0 nM
[12]; Homo sapiens, 72 h, M4A4, three-day drug treatment, read-out: gIC50
  IC50: 30.2 nM
[12]; Homo sapiens, M4A4, 50% net loss of cells vs time 0, read-out: LC50 (the source's name)
  CC50: > 33000 nM
[12]; M4A4, total growth inhibition
  TGI: 281.8 nM
[13]; [23]
  IC50: 8.8 nM
[13]; total growth inhibition
  TGI: 20.1 nM
[14]; HCC3153, total growth inhibition
  TGI: 281.8 nM
[14]; Homo sapiens, 72 h, HCC3153, three-day drug treatment, read-out: gIC50
  IC50: 38.9 nM
[14]; Homo sapiens, HCC3153, 50% net loss of cells vs time 0, read-out: LC50 (the source's name)
  CC50: ≥ 35500 nM
[15]; [22]
  CC50: 9500 nM
[15]; [23]
  IC50: 15.4 nM
[15]; total growth inhibition
  TGI: 74.3 nM
[16]; [22]
  CC50: 126 nM
[16]; [23]
  IC50: 2.5 nM
[16]; total growth inhibition
  TGI: 17.4 nM
[17]; [22]
  CC50: 2240 nM
[17]; [23]
  IC50: 31.6 nM
[17]; total growth inhibition
  TGI: 537.0 nM
[18]; HCC2185, total growth inhibition
  TGI: 10.0 nM
[18]; Homo sapiens, 72 h, HCC2185, three-day drug treatment, read-out: gIC50
  IC50: 3.2 nM
[18]; Homo sapiens, HCC2185, 50% net loss of cells vs time 0, read-out: LC50 (the source's name)
  CC50: 132 nM
[19]; Homo sapiens, UACC-812, 72 h, UACC812, three-day drug treatment, read-out: gIC50
  IC50: 4.9 nM
[19]; UACC812, total growth inhibition
  TGI: 24.0 nM
[20]; HCC202, total growth inhibition
  TGI: 2.6 nM
[20]; Homo sapiens, 72 h, HCC202, three-day drug treatment, read-out: gIC50
  IC50: 1.1 nM
[20]; Homo sapiens, HCC202, 50% net loss of cells vs time 0, read-out: LC50 (the source's name)
  CC50: 21.4 nM
[21]; Homo sapiens, MDA-MB-415, 72 h, MDAMB415, three-day drug treatment, read-out: gIC50
  IC50: 20.8 nM
[21]; Homo sapiens, MDA-MB-415, MDAMB415, 50% net loss of cells vs time 0, read-out: LC50 (the source's name)
  CC50: 528 nM
[21]; MDAMB415, total growth inhibition
  TGI: 117.7 nM
